The compounds below were run on SFV-Rluc. Details: not given.

SMILES	SFV replication % left (surviving fraction, remaining percentage of SFV replication)
CCCCNc1ccc(C(=O)OCCN(C)C)cc1.Cl [PC-215]	102.8%
CC(C)(C)NCC(O)c1ccc(O)c(CO)c1.CC(C)(C)NCC(O)c1ccc(O)c(CO)c1.O=S(=O)(O)O (centres unmarked) [PC-185]	105.0%
CCOc1ccc(NC(C)=O)cc1 [PC-150]	71.8%

Same assay, conditions: Supplementary Table 2, moderately active compounds (25 - 60% remaining), primary screen at 50 µM

SMILES	% left (remaining SFV replication)
O=c1c(-c2ccc(O)cc2)coc2cc(O)cc(O)c12 [NC-042]	45.6%
O=C(O)c1ccc(O)cc1O [NC-055]	32.1%
CCN(CC)c1ccc2cc(-c3nc4ccccc4[nH]3)c(=O)oc2c1 [NC-017]	37.3%
Cc1cc2nc3c(=O)[nH]c(=O)nc-3n(C[C@H](O)[C@H](O)[C@H](O)CO)c2cc1C [PC-182]	43.1%
C#CCN(C)[C@H](C)Cc1ccccc1.Cl [PC-055]	57.6%
CC(=O)Oc1c(C)cc(OCC(O)CNC(C)C)c(C)c1C (centres unmarked) [PC-120]	46.7%

Same assay, conditions: primary screening of chemical libraries; compounds tested at 50 µM

SMILES	SFV replication % left
O=c1c(O)c(-c2ccc(O)c(O)c2)oc2cc(O)cc(O)c12 [NC-080]	125.8%
Cc1cc(N)c2ccccc2[n+]1CCCCCCCCCC[n+]1c(C)cc(N)c2ccccc21.[Cl-].[Cl-] [PC-056]	62.5%
CN1C(=O)NC(=O)C(C)(C2=CCCCC2)C1=O (centres unmarked) [PC-087]	121.3%
COc1cc(OC)c2ccc(=O)oc2c1 [NC-128]	67.4%
O=c1c(-c2ccc(O)cc2)coc2cc(O)cc(O)c12 [NC-042]	45.6%
O=C(O)c1cc(-c2ccccc2)nc2ccccc12 [PC-048]	65.1%
O=C(O)c1ccc(O)cc1O [NC-055]	32.1%
COc1ccc(C(=O)Cc2c(CCN(C)C)cc3c(c2OC)OCO3)c(C(=O)O)c1OC [PC-127]	118.3%
CCN(CC)c1ccc2cc(-c3nc4ccccc4[nH]3)c(=O)oc2c1 [NC-017]	37.3%
COc1ccc2c(c1OC)C(=O)O[C@@H]2[C@H]1c2c(cc3c(c2OC)OCO3)CCN1C [PC-137]	103.5%
O=C(O)Cc1ccccc1O [NC-050]	7.3%
COC(=O)c1ccc(O)cc1 [PC-119]	69.3%
N[C@@H](Cc1ccc(O)c(O)c1)C(=O)O [PC-007]	43.6%
CC(C)NCC(O)c1ccc(O)c(O)c1.Cl (centres unmarked) [PC-103]	112.5%
CCOC(=O)c1ccc(N)cc1 [PC-023]	43.4%
O=C(/C=C/c1ccc(O)c(O)c1)O[C@H](Cc1ccc(O)c(O)c1)C(=O)O [NC-088]	120.3%
CCC(C)NCC(O)c1ccc2c(c1)CCCC2 (centres unmarked) [PC-030]	73.1%
O=c1c(O)c(-c2ccc(O)c(O)c2)oc2c(O[C@@H]3O[C@H](CO)[C@@H](O)[C@H](O)[C@H]3O)c(O)cc(O)c12 [NC-044]	105.8%
COc1cc(-c2[o+]c3cc(O)cc(O[C@@H]4O[C@H](CO)[C@@H](O)[C@H](O)[C@H]4O)c3cc2O[C@@H]2O[C@H](CO)[C@@H](O)[C@H](O)[C@H]2O)cc(OC)c1O.[Cl-] [NC-063]	15.4%
Cc1c(N(C)CS(=O)(=O)[O-])c(=O)n(-c2ccccc2)n1C.[Na+] [PC-069]	86.0%
COc1ccc2cc([C@H](C)C(=O)O)ccc2c1 [PC-126]	92.7%

SMILES	SFV replication % left
CCC1(CC)C(=O)NC(=O)NC1=O [PC-020]	64.7%
COc1ccc2oc(=O)cc(C)c2c1 [NC-119]	66.6%
COc1ccc(OC)c(C(O)C(C)N)c1.Cl (centres unmarked) [PC-116]	98.4%
CN1C(=O)CN=C(c2ccccc2)c2cc(Cl)ccc21 [PC-060]	73.6%
CS(=O)(=O)OCCCCOS(C)(=O)=O [PC-028]	51.8%
CC(=O)Nc1ccc(O)cc1 [PC001-]	63.5%
COc1ccc2ccc(=O)oc2c1O [NC-113]	105.6%
COc1cc(O)c2c(=O)c(O)c(-c3ccc(O)c(O)c3)oc2c1 [NC-087]	119.1%
O=c1cc(-c2ccccc2)oc2ccccc12 [NC-040]	52.2%
CC(=O)CC(c1ccccc1)c1c(O)c2ccccc2oc1=O (centres unmarked) [NC-118]	79.5%
Cc1ccc(O)c(O)c1 [NC-070]	111.1%
CCCCOC(=O)c1ccc(N)cc1 [PC-031]	76.6%
CCOc1ccc(NC(N)=O)cc1 [PC-071]	103.3%
Cc1ccc(C)c(O)c1 [NC-029]	84.6%
CC(C)NCC(O)c1ccc(O)c(O)c1.CC(C)NCC(O)c1ccc(O)c(O)c1.O.O.O=S(=O)(O)O (centres unmarked) [PC-102]	110.9%
CN1CCCCC1CCN1c2ccccc2Sc2ccc([S+](C)[O-])cc21 (centres unmarked) [NC-123]	131.1%
CCCCCCCCOC(=O)c1cc(O)c(O)c(O)c1 [NC-072]	134.4%
O=c1cc(-c2ccccc2)oc2c1ccc1ccccc12 [NC-002]	14.6%
O=C1CN=C(c2ccccc2F)c2cc(Cl)ccc2N1 [PC-057]	68.5%
O=C(O[C@@H]1Cc2c(O)cc(O)cc2O[C@@H]1c1cc(O)c(O)c(O)c1)c1cc(O)c(O)c(O)c1 [NC-037]	155.3%
CCN(CC)c1ccc2cc(-c3nc4ccccc4n3C)c(=O)oc2c1 [NC-016]	12.3%

SMILES	SFV replication % left
O=c1ccc2ccc(O)c(O)c2o1 [NC-112]	90.6%
CC(C)Cc1ccc(CC(=O)O)cc1 [PC-098]	102.2%
C[C@H]1O[C@@H](O[C@H]2[C@@H](O)C[C@H](O[C@H]3[C@@H](O)C[C@H](O[C@H]4CC[C@@]5(C)[C@H](CC[C@@H]6[C@@H]5C[C@@H](O)[C@]5(C)[C@@H](C7=CC(=O)OC7)CC[C@]65O)C4)O[C@@H]3C)O[C@@H]2C)C[C@H](O)[C@@H]1O [PC-065]	141.9%
Cl.Cl.OCCN1CCN(CC/C=C2/c3ccccc3Sc3ccc(C(F)(F)F)cc32)CC1 [PC-082]	92.6%
C=CC[C@]1(O)CC[C@H]2[C@@H]3CCC4=CCCC[C@@H]4[C@H]3CC[C@@]21C [PC-009]	37.2%
C#CCN(C)[C@H](C)Cc1ccccc1.Cl [PC-055]	57.0%
Cc1c(N)c(=O)n(-c2ccccc2)n1C [PC-011]	51.6%
O=c1cc(O)c2ccccc2o1 [NC-117]	100.2%
O=c1c(-c2ccc(O)cc2)coc2cc(O)ccc12 [NC-020]	76.6%
CCCCCCCCCCCCOC(=O)c1cc(O)c(O)c(O)c1 [NC-059]	12.3%
CC(CCc1ccccc1)NCC(O)c1ccc(O)c(C(N)=O)c1.Cl (centres unmarked) [PC-105]	72.5%
CCN(CC)CCCC(C)Nc1ccnc2cc(Cl)ccc12.O=P(O)(O)O.O=P(O)(O)O (centres unmarked) [PC-044]	12.2%
COc1ccccc1OCC(O)CO (centres unmarked) [PC-086]	124.5%
O=C(O)c1cc2cc(Br)cc(Br)c2oc1=O [NC-125]	67.4%
O=C(O)/C=C/c1ccc(O)c(O)c1 [NC-010]	98.7%
CC(=O)Oc1c(C)cc(OCC(O)CNC(C)C)c(C)c1C (centres unmarked) [PC-120]	46.2%
O=C(O)/C=C/c1ccccc1O [NC-014]	77.6%
CCC(CN(C)C)(CN(C)C)OC(=O)c1ccccc1.Cl [PC-012]	43.4%
CCCCNC(=O)c1ccc(Cl)cc1O [PC-025]	49.6%
Oc1cccc(O)c1 [NC-085]	83.0%

— paper PMC3242765, “Inhibitors of Alphavirus Entry and Replication Identified with a Stable Chikungunya Replicon Cell Line and Virus-Based Assays” (PLoS ONE, 2011)
